# Literature values in US20170245500A1 (priority 2014, published 2017).
# Details: some conditions, e.g. high temperature or higher soil pH
structure (smiles),measurement,value
CCOP(=O)(SC(C)CC)N1CCSC1=O (stereo not shown) [fosthiazate],time in which the pesticide can be degraded in soil,under ten
